Drawing on ChEMBL document CHEMBL4699602, “Stapled and Xenopus Glucagon-Like Peptide 1 (GLP-1)-Based Dual GLP-1/Gastrin Receptor Agonists with Improved Metabolic Benefits in Rodent Models of Obesity and Diabetes” (J Med Chem, 2020), this text covers EC50 for eight compounds.

Where a SMILES comes first, the peptide text is derived from it.

This assay deals with Glucagon-like peptide 1 receptor (Homo sapiens, UniProt P43220). Put plainly: Agonist activity at human GLP-1R expressed in HEK293 cells assessed as stimulation of cAMP accumulation incubated for 20 mins. In kind it is functional, cell-based. On the technique in general: Cyclic AMP is a second messenger, typically raised through Gs and lowered through Gi signalling.
Glucagon-like peptide 1 receptor, sequence (P43220 whole entry): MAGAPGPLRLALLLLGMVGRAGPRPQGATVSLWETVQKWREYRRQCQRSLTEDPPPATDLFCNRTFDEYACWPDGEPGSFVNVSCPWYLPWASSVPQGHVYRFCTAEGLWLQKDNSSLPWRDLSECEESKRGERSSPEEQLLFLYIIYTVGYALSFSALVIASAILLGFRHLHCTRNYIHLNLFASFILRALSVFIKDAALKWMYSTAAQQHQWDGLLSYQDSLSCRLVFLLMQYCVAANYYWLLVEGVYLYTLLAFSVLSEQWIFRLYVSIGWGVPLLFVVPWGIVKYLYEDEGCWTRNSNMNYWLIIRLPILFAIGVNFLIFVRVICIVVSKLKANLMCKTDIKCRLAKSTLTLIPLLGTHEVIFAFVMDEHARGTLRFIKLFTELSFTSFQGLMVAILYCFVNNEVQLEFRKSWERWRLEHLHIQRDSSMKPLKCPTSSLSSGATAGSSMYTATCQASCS
With `CC[C@H](C)[C@H](NC(=O)[C@H](CC(C)C)NC(=O)[C@H](Cc1c[nH]c2ccccc12)NC(=O)[C@H](CCC(=O)O)NC(=O)[C@H](CS)NC(=O)[C@H](Cc1ccccc1)NC(=O)[C@H](CCC(=O)O)NC(=O)[C@H](CCCCN)NC(=O)[C@H](C)NC(=O)[C@H](C)NC(=O)[C@H](CCC(=O)O)NC(=O)[C@H](CS)NC(=O)[C@H](CCC(=O)O)NC(=O)[C@H](CC(C)C)NC(=O)[C@H](Cc1ccc(O)cc1)NC(=O)[C@H](CCC(=O)O)NC(=O)[C@@H](NC(=O)[C@@H](NC(=O)[C@H](CC(=O)O)NC(=O)[C@H](CC(N)=O)NC(=O)[C@@H](NC(=O)[C@H](Cc1ccc(O)cc1)NC(=O)[C@@H](NC(=O)CNC(=O)[C@H](CCC(=O)O)NC(=O)C(C)(C)NC(=O)[C@@H](N)Cc1c[nH]cn1)[C@@H](C)O)[C@@H](C)O)C(C)C)[C@@H](C)O)C(=O)N[C@@H](CCCCN)C(=O)NCC(=O)N[C@@H](CCCCN)C(=O)N1CCC[C@H]1C(=O)N[C@@H](CO)C(=O)N[C@@H](CO)C(=O)NCC(=O)N[C@@H](C)C(=O)N1CCC[C@H]1C(=O)N1CCC[C@H]1C(=O)N1CCC[C@H]1C(=O)N[C@@H](CO)C(N)=O` (HELM PEPTIDE1{H.[Aib].E.G.T.Y.T.N.D.V.T.E.Y.L.E.C.E.A.A.K.E.F.C.E.W.L.I.K.G.K.P.S.S.G.A.P.P.P.S.[am]}$$$$V2.0), the concentration for a half-maximal effect (EC50) was found to be 0.28 nM. As for `CC[C@H](C)[C@H](NC(=O)[C@H](CC(C)C)NC(=O)[C@H](Cc1c[nH]c2ccccc12)NC(=O)[C@H](CCC(=O)O)NC(=O)[C@H](CS)NC(=O)[C@H](Cc1ccccc1)NC(=O)[C@H](CCC(=O)O)NC(=O)[C@H](CCCCN)NC(=O)[C@H](C)NC(=O)[C@H](C)NC(=O)[C@H](CCC(=O)O)NC(=O)[C@H](CS)NC(=O)[C@H](CCC(=O)O)NC(=O)[C@H](CC(C)C)NC(=O)[C@H](Cc1ccc(O)cc1)NC(=O)[C@H](CCC(=O)O)NC(=O)[C@@H](NC(=O)[C@@H](NC(=O)[C@H](CC(=O)O)NC(=O)[C@H](CC(N)=O)NC(=O)[C@@H](NC(=O)[C@H](Cc1ccc(O)cc1)NC(=O)[C@@H](NC(=O)CNC(=O)[C@H](CCC(=O)O)NC(=O)C(C)(C)NC(=O)[C@@H](N)Cc1c[nH]cn1)[C@@H](C)O)[C@@H](C)O)C(C)C)[C@@H](C)O)C(=O)N[C@@H](CCCCN)C(=O)NCC(=O)N[C@@H](CCCCN)C(N)=O` (HELM PEPTIDE1{H.[Aib].E.G.T.Y.T.N.D.V.T.E.Y.L.E.C.E.A.A.K.E.F.C.E.W.L.I.K.G.K.[am]}$$$$V2.0), the figure is 0.73 nM. Take `CC[C@H](C)[C@H](NC(=O)[C@H](CC(C)C)NC(=O)[C@H](Cc1c[nH]c2ccccc12)NC(=O)[C@H](CS)NC(=O)[C@@H](NC(=O)[C@H](Cc1ccccc1)NC(=O)[C@H](CCC(=O)O)NC(=O)[C@H](CCCCN)NC(=O)[C@H](C)NC(=O)[C@H](C)NC(=O)[C@H](CS)NC(=O)[C@H](CCC(=O)O)NC(=O)[C@H](CCC(=O)O)NC(=O)[C@H](CC(C)C)NC(=O)[C@H](Cc1ccc(O)cc1)NC(=O)[C@H](CCC(=O)O)NC(=O)[C@@H](NC(=O)[C@@H](NC(=O)[C@H](CC(=O)O)NC(=O)[C@H](CC(N)=O)NC(=O)[C@@H](NC(=O)[C@H](Cc1ccc(O)cc1)NC(=O)[C@@H](NC(=O)CNC(=O)[C@H](CCC(=O)O)NC(=O)C(C)(C)NC(=O)[C@@H](N)Cc1c[nH]cn1)[C@@H](C)O)[C@@H](C)O)C(C)C)[C@@H](C)O)[C@@H](C)CC)C(=O)N[C@@H](CCCCN)C(=O)NCC(=O)N[C@@H](CCCCN)C(=O)N1CCC[C@H]1C(=O)N[C@@H](CO)C(=O)N[C@@H](CO)C(=O)NCC(=O)N[C@@H](C)C(=O)N1CCC[C@H]1C(=O)N1CCC[C@H]1C(=O)N1CCC[C@H]1C(=O)N[C@@H](CO)C(N)=O` (HELM PEPTIDE1{H.[Aib].E.G.T.Y.T.N.D.V.T.E.Y.L.E.E.C.A.A.K.E.F.I.C.W.L.I.K.G.K.P.S.S.G.A.P.P.P.S.[am]}$$$$V2.0): the concentration giving a half-maximal response (EC50) stood at 0.089 nM. Turning to `CC[C@H](C)[C@H](NC(=O)[C@H](CC(C)C)NC(=O)[C@H](Cc1c[nH]c2ccccc12)NC(=O)[C@H](CS)NC(=O)[C@@H](NC(=O)[C@H](Cc1ccccc1)NC(=O)[C@H](CCC(=O)O)NC(=O)[C@H](CCCCN)NC(=O)[C@H](C)NC(=O)[C@H](C)NC(=O)[C@H](CS)NC(=O)[C@H](CCC(=O)O)NC(=O)[C@H](CCC(=O)O)NC(=O)[C@H](CC(C)C)NC(=O)[C@H](Cc1ccc(O)cc1)NC(=O)[C@H](CCC(=O)O)NC(=O)[C@@H](NC(=O)[C@@H](NC(=O)[C@H](CC(=O)O)NC(=O)[C@H](CC(N)=O)NC(=O)[C@@H](NC(=O)[C@H](Cc1ccc(O)cc1)NC(=O)[C@@H](NC(=O)CNC(=O)[C@H](CCC(=O)O)NC(=O)C(C)(C)NC(=O)[C@@H](N)Cc1c[nH]cn1)[C@@H](C)O)[C@@H](C)O)C(C)C)[C@@H](C)O)[C@@H](C)CC)C(=O)N[C@@H](CCCCN)C(=O)NCC(=O)N[C@@H](CCCCN)C(N)=O` (HELM PEPTIDE1{H.[Aib].E.G.T.Y.T.N.D.V.T.E.Y.L.E.E.C.A.A.K.E.F.I.C.W.L.I.K.G.K.[am]}$$$$V2.0), the EC50 was 0.16 nM. As for `CC[C@H](C)[C@H](NC(=O)[C@H](Cc1ccccc1)NC(=O)[C@H](CCC(=O)O)NC(=O)[C@H](CS)NC(=O)[C@H](C)NC(=O)[C@H](C)NC(=O)[C@H](CCC(=O)O)NC(=O)[C@H](CCC(=O)O)NC(=O)[C@H](CCC(=O)O)NC(=O)[C@H](CC(C)C)NC(=O)[C@H](Cc1ccc(O)cc1)NC(=O)[C@H](CCC(=O)O)NC(=O)[C@@H](NC(=O)[C@@H](NC(=O)[C@H](CC(=O)O)NC(=O)[C@H](CC(N)=O)NC(=O)[C@@H](NC(=O)[C@H](Cc1ccc(O)cc1)NC(=O)[C@@H](NC(=O)CNC(=O)[C@H](CCC(=O)O)NC(=O)C(C)(C)NC(=O)[C@@H](N)Cc1c[nH]cn1)[C@@H](C)O)[C@@H](C)O)C(C)C)[C@@H](C)O)C(=O)N[C@@H](CCC(=O)O)C(=O)N[C@@H](Cc1c[nH]c2ccccc12)C(=O)N[C@@H](CC(C)C)C(=O)N[C@@H](CS)C(=O)N[C@@H](CCCCN)C(=O)NCC(=O)N[C@@H](CCCCN)C(=O)N1CCC[C@H]1C(=O)N[C@@H](CO)C(=O)N[C@@H](CO)C(=O)NCC(=O)N[C@@H](C)C(=O)N1CCC[C@H]1C(=O)N1CCC[C@H]1C(=O)N1CCC[C@H]1C(=O)N[C@@H](CO)C(N)=O` (HELM PEPTIDE1{H.[Aib].E.G.T.Y.T.N.D.V.T.E.Y.L.E.E.E.A.A.C.E.F.I.E.W.L.C.K.G.K.P.S.S.G.A.P.P.P.S.[am]}$$$$V2.0), the figure is 0.26 nM. Take `CC[C@H](C)[C@H](NC(=O)[C@H](Cc1ccccc1)NC(=O)[C@H](CCC(=O)O)NC(=O)[C@H](CS)NC(=O)[C@H](C)NC(=O)[C@H](C)NC(=O)[C@H](CCC(=O)O)NC(=O)[C@H](CCC(=O)O)NC(=O)[C@H](CCC(=O)O)NC(=O)[C@H](CC(C)C)NC(=O)[C@H](Cc1ccc(O)cc1)NC(=O)[C@H](CCC(=O)O)NC(=O)[C@@H](NC(=O)[C@@H](NC(=O)[C@H](CC(=O)O)NC(=O)[C@H](CC(N)=O)NC(=O)[C@@H](NC(=O)[C@H](Cc1ccc(O)cc1)NC(=O)[C@@H](NC(=O)CNC(=O)[C@H](CCC(=O)O)NC(=O)C(C)(C)NC(=O)[C@@H](N)Cc1c[nH]cn1)[C@@H](C)O)[C@@H](C)O)C(C)C)[C@@H](C)O)C(=O)N[C@@H](CCC(=O)O)C(=O)N[C@@H](Cc1c[nH]c2ccccc12)C(=O)N[C@@H](CC(C)C)C(=O)N[C@@H](CS)C(=O)N[C@@H](CCCCN)C(=O)NCC(=O)N[C@@H](CCCCN)C(N)=O` (HELM PEPTIDE1{H.[Aib].E.G.T.Y.T.N.D.V.T.E.Y.L.E.E.E.A.A.C.E.F.I.E.W.L.C.K.G.K.[am]}$$$$V2.0): the concentration for a half-maximal effect (EC50) stood at 0.76 nM. As for `CC[C@H](C)[C@H](NC(=O)[C@H](CS)NC(=O)[C@H](CCC(=O)O)NC(=O)[C@H](CCCCN)NC(=O)[C@H](C)NC(=O)[C@H](C)NC(=O)[C@H](CCC(=O)O)NC(=O)[C@H](CCC(=O)O)NC(=O)[C@H](CCC(=O)O)NC(=O)[C@H](CC(C)C)NC(=O)[C@H](Cc1ccc(O)cc1)NC(=O)[C@H](CCC(=O)O)NC(=O)[C@@H](NC(=O)[C@@H](NC(=O)[C@H](CC(=O)O)NC(=O)[C@H](CC(N)=O)NC(=O)[C@@H](NC(=O)[C@H](Cc1ccc(O)cc1)NC(=O)[C@@H](NC(=O)CNC(=O)[C@H](CCC(=O)O)NC(=O)C(C)(C)NC(=O)[C@@H](N)Cc1c[nH]cn1)[C@@H](C)O)[C@@H](C)O)C(C)C)[C@@H](C)O)C(=O)N[C@@H](CCC(=O)O)C(=O)N[C@@H](Cc1c[nH]c2ccccc12)C(=O)N[C@@H](CC(C)C)C(=O)N[C@H](C(=O)N[C@@H](CCCCN)C(=O)N[C@@H](CS)C(=O)N[C@@H](CCCCN)C(=O)N1CCC[C@H]1C(=O)N[C@@H](CO)C(=O)N[C@@H](CO)C(=O)NCC(=O)N[C@@H](C)C(=O)N1CCC[C@H]1C(=O)N1CCC[C@H]1C(=O)N1CCC[C@H]1C(=O)N[C@@H](CO)C(N)=O)[C@@H](C)CC` (HELM PEPTIDE1{H.[Aib].E.G.T.Y.T.N.D.V.T.E.Y.L.E.E.E.A.A.K.E.C.I.E.W.L.I.K.C.K.P.S.S.G.A.P.P.P.S.[am]}$$$$V2.0), the figure is 0.16 nM; as for `CC[C@H](C)[C@H](NC(=O)[C@H](CC(C)C)NC(=O)[C@H](Cc1c[nH]c2ccccc12)NC(=O)[C@H](CCC(=O)O)NC(=O)[C@@H](NC(=O)[C@H](CS)NC(=O)[C@H](CCC(=O)O)NC(=O)[C@H](CCCCN)NC(=O)[C@H](C)NC(=O)[C@H](C)NC(=O)[C@H](CCC(=O)O)NC(=O)[C@H](CCC(=O)O)NC(=O)[C@H](CCC(=O)O)NC(=O)[C@H](CC(C)C)NC(=O)[C@H](Cc1ccc(O)cc1)NC(=O)[C@H](CCC(=O)O)NC(=O)[C@@H](NC(=O)[C@@H](NC(=O)[C@H](CC(=O)O)NC(=O)[C@H](CC(N)=O)NC(=O)[C@@H](NC(=O)[C@H](Cc1ccc(O)cc1)NC(=O)[C@@H](NC(=O)CNC(=O)[C@H](CCC(=O)O)NC(=O)C(C)(C)NC(=O)[C@@H](N)Cc1c[nH]cn1)[C@@H](C)O)[C@@H](C)O)C(C)C)[C@@H](C)O)[C@@H](C)CC)C(=O)N[C@@H](CCCCN)C(=O)N[C@@H](CS)C(=O)N[C@@H](CCCCN)C(N)=O` (HELM PEPTIDE1{H.[Aib].E.G.T.Y.T.N.D.V.T.E.Y.L.E.E.E.A.A.K.E.C.I.E.W.L.I.K.C.K.[am]}$$$$V2.0), 0.45 nM.

One may read the EC50 as the concentration at which the effect is half-maximal.
